Test results as given in patent US9572813B2, “Antiviral agent” (SHIONOGI & CO., LTD., priority 2001, dated 2017).
Structures can show the parent of a compound that is named as a salt.

Structure (SMILES) | melting point
COCCN1CC(C(=O)c2ccc(Cc3ccc(F)cc3)o2)=C(O)C1=O | 105 to 106 °C
Cn1c(-c2nnc(Cc3ccc(F)cc3)o2)c(O)c(=O)c2ccccc21 | 222 °C
O=C(C1=C(O)C(=O)N(CCO)C1)c1occc1Cc1ccc(F)cc1 | 195 to 196 °C
COCn1ccc(C(=O)c2ccc(Cc3ccc(F)cc3)o2)c(O)c1=O | 128 to 130 °C
COC(=O)c1cc(=O)c(O)c(C(=O)c2ccc(Cc3ccc(F)cc3)o2)o1 | 174 to 176 °C
O=C(c1ccc(Cc2ccc(F)cc2)o1)c1oc2ccccc2c(=O)c1O | 226 to 227 °C
CN1CC(c2cc(CCc3ccccc3)cnn2)=C(O)C1=O | 203 to 205 °C
CCC(O)CN1CC(C(=O)c2ccc(Cc3ccc(F)cc3)o2)=C(O)C1=O (stereo not drawn) | 132 to 133 °C
O=C(C1=C(O)C(=O)N(Cc2ccccc2)C1)c1ccc(Cc2ccc(F)cc2)o1 | 129 to 130 °C
O=c1c(O)c(-c2nc[nH]n2)oc2cccc(OCc3ccc(F)cc3)c12 | 254 to 256 °C
COCNC(=O)c1cc(OCc2ccc(F)cc2)c2c(=O)c(O)c(-c3ncnn3C)oc2c1 | 220 to 221 °C
O=C1NCCC(C(=O)c2ccc(Cc3ccc(F)cc3)o2)=C1O | 166 to 168 °C
CN1CC(C(=O)c2cc(C(=O)O)c(Cc3ccc(F)cc3)o2)=C(O)C1=O | 255 to 258 °C (dec.)
CCN1CC(C(=O)c2oc(C(C)(C)C)cc2Cc2ccc(F)cc2)=C(O)C1=O | 141 to 143 °C
CCCC(O)CN1CC(C(=O)c2ccc(Cc3ccc(F)cc3)o2)=C(O)C1=O (stereo not drawn) | 171 °C
COc1cc(F)ccc1Cc1ccc(C(=O)C2=C(O)C(=O)N(C)C2)o1 | 134 to 135 °C
Cn1ncnc1-c1oc2cc(C(=O)O)cc(OCc3ccc(F)cc3)c2c(=O)c1O | 280 to 282 °C
N#Cc1cc(=O)c(O)c(C(=O)c2ccc(Cc3ccc(F)cc3)o2)o1 | 190 to 194 °C (dec.)
Cn1ncnc1-c1oc2cc(C(N)=O)cc(OCc3ccc(F)cc3)c2c(=O)c1O | 257 to 258 °C
Cn1ncnc1-c1oc2cccc(OCCc3ccc(F)cc3)c2c(=O)c1O | 215 to 217 °C

Structure (SMILES) | melting point
Cn1c(C(=O)c2ccc(Cc3ccc(F)cc3)o2)c(O)c(=O)n1C | 110 to 111 °C
O=C(C1=C(O)C(=O)N(CC(O)CO)C1)c1occc1Cc1ccc(F)cc1 (stereo not drawn) | 208 to 210 °C
CN1CC(C(=O)c2oc(Cc3ccc(F)cc3)cc2Cc2ccc(F)cc2)=C(O)C1=O | 157 to 160 °C
O=C(C1=C(O)C(=O)N(CCN2CCCCC2)C1)c1ccc(Cc2ccc(F)cc2)o1 | 228 to 232 °C (dec.)
COC(=O)c1cc(OCc2ccc(F)cc2)c2c(=O)c(O)c(-c3ncnn3C)oc2c1 | 253 to 255 °C
CCOC(=O)c1oc2ccc(OCc3ccc(F)cc3)cc2c(=O)c1O | 190 to 192 °C
COCCNC(=O)c1cc(=O)c(O)c(C(=O)c2ccc(Cc3ccc(F)cc3)o2)o1 | 177 to 179 °C
Cn1ncnc1-c1oc2c(Br)ccc(OCc3ccc(F)cc3)c2c(=O)c1O | 220 to 223 °C
CN1CC(C(=O)c2oc(C3CCCCC3)cc2Cc2ccc(F)cc2)=C(O)C1=O | 175 to 176 °C
O=C(c1ccc(Cc2ccc(F)cc2)o1)c1oc(C(=O)N2CCCCC2)cc(=O)c1O | 146 to 148 °C
CN1CC(c2nccc(CCc3ccccc3)n2)=C(O)C1=O | 118 to 119 °C
Cc1nc(-c2oc3cccc(OCc4ccc(F)cc4)c3c(=O)c2O)n[nH]1 | 289 to 292 °C
CN(C)C(=O)c1cc(OCc2ccc(F)cc2)c2c(=O)c(O)c(-c3ncnn3C)oc2c1 | 227 to 229 °C
O=C(C1=C(O)C(=O)N(C2CCCC2)C1)c1ccc(Cc2ccc(F)cc2)o1 | 157 to 159 °C
CN1CC(C(=O)c2oc(C(=O)N3CCOCC3)cc2Cc2ccc(F)cc2)=C(O)C1=O | 209 to 211 °C (dec.)
O=C(C1=C(O)C(=O)N(CC(O)CO)C1)c1ccc(Cc2ccc(F)cc2)o1 (stereo not drawn) | 119 to 120 °C
COCc1cc(=O)c(O)c(C(=O)c2ccc(Cc3ccc(F)cc3)o2)o1 | 147 to 148 °C
O=c1c(O)c(-c2ncccn2)oc2cccc(OCc3ccc(F)cc3)c12 | 252 to 254 °C
CN1CC(C(=O)c2oc(C(C)(C)C)cc2Cc2ccc(F)cc2)=C(O)C1=O | 179 to 181 °C

Next, values leading:

melting point | Structure (SMILES)
204 to 206 °C | CC(C)N1CC(c2ccc(Oc3ccc(F)cc3)nn2)=C(O)C1=O
223 to 225 °C | CN1CC(c2cnc(Cc3ccc(F)cc3)cn2)=C(O)C1=O
255 to 256 °C | Cc1nc(=O)c(O)c(-c2ccc(Oc3ccc(F)cc3)cn2)[nH]1
230 to 231 °C | CN1CC(C(=O)c2ncc(Cc3ccc(F)cc3)s2)=C(O)C1=O
225 to 228 °C | CC(C)N1CC(c2cc(CCc3ccc(F)cc3)ncn2)=C(O)C1=O
214 to 216 °C | CN1CC(c2ncc(CCc3ccc(F)cc3)s2)=C(O)C1=O
162 to 163 °C | CC(C)N1CC(C(=O)c2ccc(Cc3ccccc3)o2)=C(O)C1=O
181 to 183 °C | CN1CC(C(=O)c2sccc2Cc2ccc(F)cc2)=C(O)C1=O
229 to 230 °C | CN1CC(c2ccc(Oc3ccc(F)cc3)cn2)=C(O)C1=O
174 to 178 °C | CC(C)N1CC(C(=O)c2cnc(Cc3ccc(F)cc3)o2)=C(O)C1=O
140 to 141 °C | CCC(CC)N1CC(C(=O)c2ccc(Cc3ccc(F)cc3)o2)=C(O)C1=O
205 to 207 °C | CC(C)N1CC(c2ccc([S+]([O-])c3ccc(F)cc3)cn2)=C(O)C1=O (stereo not drawn)
221 to 223 °C | CN1CC(C(=O)c2ccc(Cc3ccc(F)cc3)[nH]2)=C(O)C1=O
227 to 230 °C | CN1CC(c2nccc(OCc3ccc(F)cc3)n2)=C(O)C1=O
216 to 217 °C | CC(C)N1CC(c2cnc(Oc3ccccc3)cn2)=C(O)C1=O
146 to 147 °C | CC(C)N1CC(C(=O)c2oc(C(C)(C)C)cc2Cc2ccc(F)cc2)=C(O)C1=O
207 to 208 °C | CN1CC(c2ncc(Oc3ccccc3)cn2)=C(O)C1=O
177 to 178 °C | CC(C)N1CC(c2cc(OCc3ccccc3)ncn2)=C(O)C1=O
158 to 160 °C | CN1CC(C(=O)c2coc(Cc3ccc(F)cc3)c2)=C(O)C1=O

melting point | Structure (SMILES)
143 to 145 °C | CN1CC(C(=O)c2cc(Cc3ccc(F)cc3)co2)=C(O)C1=O
227 to 229 °C | CC(C)N1CC(c2cnc(Oc3ccc(F)cc3)cn2)=C(O)C1=O
224 to 226 °C | CC(C)N1CC(C(=O)c2cn(Cc3ccc(F)cc3)cn2)=C(O)C1=O
200 to 202 °C | CN1CC(c2ccc(Oc3ccccc3)cn2)=C(O)C1=O
219 to 221 °C | CC(C)N1CC(c2ncc(OCc3ccc(F)cc3)cn2)=C(O)C1=O
160 to 161 °C | COc1cc(Cc2ccc(C(=O)C3=C(O)C(=O)N(C(C)C)C3)o2)ccc1F
164 to 166 °C | COc1ccc(CN2CC(c3ccc(Cc4ccc(F)cc4)cn3)=C(O)C2=O)cc1
225 to 228 °C | CN1CC(c2cc(CCc3ccc(F)cc3)ncn2)=C(O)C1=O
105 to 106 °C | CC(C)N1CC(c2ncnc(OCc3ccc(F)cc3)n2)=C(O)C1=O
165 to 166.5 °C | CC(C)N1CC(C(=O)c2ccc(Cc3cccc4ccccc34)o2)=C(O)C1=O
240 to 241 °C | CC(C)c1ccccc1COc1cc(C2=C(O)C(=O)N(C)C2)ncn1
203 to 205 °C | CC(C)N1CC(c2ccc(Oc3ccccc3)nn2)=C(O)C1=O
163 to 165 °C | CN1CC(c2ncc(Cc3ccc(F)cc3)cn2)=C(O)C1=O
154 to 156 °C | Cc1cc(Cc2ccc(F)cc2)c(C(=O)C2=C(O)C(=O)N(C)C2)o1
210 to 211 °C | CN1CC(c2ccc(OCc3ccc(F)cc3)cn2)=C(O)C1=O
167 to 168 °C | CN1CC(c2cc(CCc3ccc(F)cc3)ccn2)=C(O)C1=O
125 to 127 °C | Cc1cc(Cc2ccc(F)cc2)c(C(=O)C2=C(O)C(=O)N(C(C)C)C2)o1
172 °C | CC(O)CN1CC(C(=O)c2ccc(Cc3ccc(F)cc3)o2)=C(O)C1=O (stereo not drawn)
237 to 238 °C | CN1CC(c2cnc(Oc3ccc(F)cc3)cn2)=C(O)C1=O

melting point | Structure (SMILES)
257 °C | CN1CC(C(=O)c2ncoc2Cc2ccc(F)cc2)=C(O)C1=O (as salt: salt)
212 °C | O=c1c(O)c(-c2ncc(Oc3ccccc3)cn2)oc2ccccc12
220 °C | CC(C)N1CC(C(=O)c2c[nH]c(Cc3ccc(F)cc3)n2)=C(O)C1=O
165 to 166 °C | CC(C)N1CC(c2ncc(Oc3ccc(F)cc3)cn2)=C(O)C1=O
170 °C | Cc1nc(C(=O)C2=C(O)C(=O)N(C)C2)c(Cc2ccc(F)cc2)o1
123 to 124 °C | COc1ccccc1Cc1ccc(C(=O)C2=C(O)C(=O)N(C(C)C)C2)o1
182 to 183 °C | CCC(CC)N1CC(c2cc(CCc3ccccc3)ncn2)=C(O)C1=O
126 to 127 °C | CC(C)N1CC(c2nccc(CCc3ccccc3)n2)=C(O)C1=O
207 to 209 °C | CC(C)N1CC(c2cnc(Cc3ccc(F)cc3)cn2)=C(O)C1=O
167 °C | CCN1CC(C(=O)c2occc2Cc2ccc(F)cc2)=C(O)C1=O
162 to 164 °C | CN1CC(c2cc(C(Cc3ccc(F)cc3)Cc3ccc(F)cc3)ncn2)=C(O)C1=O
148 to 149 °C | CC(C)N1CC(c2nccc(OCc3ccc(F)cc3)n2)=C(O)C1=O
129.5 to 131 °C | CC(C)N1CC(C(=O)c2cnn(Cc3ccc(F)cc3)c2)=C(O)C1=O
112 to 113 °C | COc1cc(F)ccc1Cc1ccc(C(=O)C2=C(O)C(=O)N(C(C)C)C2)o1
120 to 122 °C | CC(C)N1C(=O)C(O)=C(C(=O)c2ccc(Cc3ccc(F)cc3)o2)C1C (stereo not drawn)
229 to 231 °C | CC(C)N1CC(c2cc(CCc3ccccc3)ncn2)=C(O)C1=O
197 to 199 °C | CC(C)N1CC(C(=O)c2occc2Cc2ccc(F)cc2)=C(O)C1=O
215 to 218 °C | CC(C)N1CC(C(=O)c2ccc(Cc3ccc(F)cc3C(N)=O)o2)=C(O)C1=O
220 to 225 °C | CN1CC(c2ccc(Oc3ccccc3)nn2)=C(O)C1=O
